One block for each compound: values may come before it. Calls of active or inactive are those of the source.
What was measured:
[1] = target: T1, G-protein coupled receptor 35 (Homo sapiens, UniProt Q9HC97); assay: SAR analysis of Antagonists of the GPR35 Receptor using an Image-Based Assay - Set 3. [Related pubchem assays (depositor defined):AID2013, AID2026]; format: functional
[2] = target: T1, G-protein coupled receptor 35; assay: SAR analysis of Agonists of the GPR35 Receptor using an Image-Based Assay - Set 2. [Related pubchem assays (depositor defined):AID2013, AID2026]; format: functional
[3] = target: T2, G-protein coupled receptor 55 (Homo sapiens, UniProt Q9Y2T6); assay: GPR55 antagonist potency of analogs, SAR follow-up, imaging, U2OS, beta-arrestin-GFP, LPI agonist, set 2 (AID 2820); format: functional
[4] = target: T3, Cannabinoid receptor 1 (Homo sapiens, UniProt P21554); assay: SAR analysis of agonists of the Cannabinoid Receptor 1 using an Image-Based Assay - Set 2. [Related pubchem assays (depositor defined):AID2013, AID2026]; format: functional
[5] = target: T3, Cannabinoid receptor 1; assay: SAR analysis of antagonists of the Cannabinoid Receptor 1 using an Image-Based Assay - Set 2. [Related pubchem assays (depositor defined):AID2013, AID2026]; format: functional
[6] = target: T4, Cannabinoid receptor 2 (Homo sapiens, UniProt P34972); assay: SAR analysis of antagonists of the Cannabinoid Receptor 2 using an Image-Based Assay. [Related pubchem assays (depositor defined):AID2013, AID2026]; format: functional
[7] = target: T4, Cannabinoid receptor 2; assay: SAR analysis of agonists of the Cannabinoid Receptor 2 using an Image-Based Assay. [Related pubchem assays (depositor defined):AID2013, AID2026]; format: functional
[8] = target: T2, G-protein coupled receptor 55; assay: GPR55 antagonists blocking LPI-driven arrestin recruitment, primary screen, imaging, U2OS, beta-arrestin-GFP, LPI agonist (AID 2013); format: functional;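 also: antagonist potency measured as reduced agonist-driven arrestin aggregation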
[9] = target: Metabotropic glutamate receptor 6 (Homo sapiens, UniProt O15303); assay: Modulation of the Metabotropic Glutamate Receptor mGluR4: Selectivity at mGluR6. [Related pubchem assays (depositor defined):AID2437, AID2807]; format: functional
[10] = target: Metabotropic glutamate receptor 2 (Rattus norvegicus, UniProt P31421); assay: rat mGluR2 glutamate potency shift by compounds, selectivity assay for mGluR4 modulator project, cell-based (AID 2188); format: functional
[11] = target: Metabotropic glutamate receptor 3 (Rattus norvegicus, UniProt P31422); assay: Modulation of the Metabotropic Glutamate Receptor mGluR4: Selectivity at mGluR3. [Related pubchem assays (depositor defined):AID2437, AID2807]; format: functional
[12] = target: Metabotropic glutamate receptor 8 (Rattus norvegicus, UniProt P70579); assay: Modulation of the Metabotropic Glutamate Receptor mGluR4: Selectivity at mGluR8. [Related pubchem assays (depositor defined):AID2437, AID2807]; format: functional
[13] = target: Metabotropic glutamate receptor 1 (Rattus norvegicus, UniProt P23385); assay: Modulation of the Metabotropic Glutamate Receptor mGluR4: Selectivity at mGluR1. [Related pubchem assays (depositor defined):AID2437, AID2807]; format: functional
[14] = target: T5, SUMO-activating enzyme (Homo sapiens, UniProt Q9UBT2); assay: inhibitors of in vitro SUMOylation cascade, primary screen, biochemical, HTRF, uHTS (AID 2006); format: protein-complex assay
[15] = target: Albumin (Bos taurus, UniProt P02769); assay: Counterscreen for inhibitors of T-cell receptor (TCR)-CD3 interaction: Fluorescence-based biochemical high throughput dose response assay to identify inhibitors of T-cell receptor (TCR)-CD3 interaction using a TAMRA-labeled BSA probe.; format: functional
[16] = NIH-3T3 fibroblast cytotoxicity, dose response, cytotoxicity control, cell-based, fluorescence, Alamar Blue, secondary assay (AID 2327); format: functional;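 also: NIH-3T3 mouse fibroblasts cultured with fluconazole at 8 µg/mL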
[17] = target: T6, Histone-lysine N-methyltransferase NSD2 (Homo sapiens, UniProt O96028); format: biochemical
T6 sequence (O96028 whole entry): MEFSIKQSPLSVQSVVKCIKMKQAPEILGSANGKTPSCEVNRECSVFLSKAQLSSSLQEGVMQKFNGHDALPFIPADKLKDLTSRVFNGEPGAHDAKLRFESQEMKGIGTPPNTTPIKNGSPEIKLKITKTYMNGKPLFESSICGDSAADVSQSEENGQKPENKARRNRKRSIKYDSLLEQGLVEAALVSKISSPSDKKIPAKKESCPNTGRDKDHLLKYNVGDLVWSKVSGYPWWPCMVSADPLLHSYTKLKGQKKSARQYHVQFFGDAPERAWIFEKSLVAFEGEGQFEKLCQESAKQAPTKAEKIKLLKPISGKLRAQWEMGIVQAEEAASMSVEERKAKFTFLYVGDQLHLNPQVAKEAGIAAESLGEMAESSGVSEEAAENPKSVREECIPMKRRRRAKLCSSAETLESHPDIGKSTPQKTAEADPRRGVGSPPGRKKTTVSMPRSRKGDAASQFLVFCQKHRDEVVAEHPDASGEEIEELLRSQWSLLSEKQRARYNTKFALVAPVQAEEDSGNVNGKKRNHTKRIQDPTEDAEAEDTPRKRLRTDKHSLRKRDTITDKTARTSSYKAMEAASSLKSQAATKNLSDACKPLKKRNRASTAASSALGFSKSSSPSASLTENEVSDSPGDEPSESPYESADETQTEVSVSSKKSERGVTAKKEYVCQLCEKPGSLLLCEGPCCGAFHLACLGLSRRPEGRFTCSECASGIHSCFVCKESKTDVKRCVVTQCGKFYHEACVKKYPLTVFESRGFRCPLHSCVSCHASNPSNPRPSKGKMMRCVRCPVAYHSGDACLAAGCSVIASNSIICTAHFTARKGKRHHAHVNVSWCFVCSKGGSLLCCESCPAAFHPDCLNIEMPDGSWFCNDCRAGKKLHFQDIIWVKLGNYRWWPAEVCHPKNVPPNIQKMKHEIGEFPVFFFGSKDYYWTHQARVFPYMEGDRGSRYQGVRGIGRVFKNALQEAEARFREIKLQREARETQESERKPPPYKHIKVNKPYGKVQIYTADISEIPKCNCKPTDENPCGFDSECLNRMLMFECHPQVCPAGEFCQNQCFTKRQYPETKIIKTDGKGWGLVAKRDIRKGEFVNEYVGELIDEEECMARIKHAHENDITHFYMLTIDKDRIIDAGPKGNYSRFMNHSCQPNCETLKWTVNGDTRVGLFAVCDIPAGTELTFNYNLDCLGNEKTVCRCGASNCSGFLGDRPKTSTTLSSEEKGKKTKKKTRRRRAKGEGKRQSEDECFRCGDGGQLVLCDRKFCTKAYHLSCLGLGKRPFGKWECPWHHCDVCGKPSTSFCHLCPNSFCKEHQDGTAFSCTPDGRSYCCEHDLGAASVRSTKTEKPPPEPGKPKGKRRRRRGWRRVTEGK

[18] = target: Intestinal-type alkaline phosphatase (Mus musculus, UniProt P24822); assay: PubChem AID 488785; format: functional
[19] = target: DNA dC->dU-editing enzyme APOBEC-3G (Homo sapiens, UniProt Q9HC16); assay: Dose Response confirmation of small molecule APOBEC3G DNA Deaminase Inhibitors via a fluorescence-based single-stranded DNA deaminase assay. [Related pubchem assays (depositor defined):AID493012, AID493028]; format: functional
[20] = target: T5, SUMO-activating enzyme; assay: SUMOylation inhibitor hit validation, confirmation, SUMOylation inhibitor project, biochemical, AlphaScreen (AID 2018); format: functional
[21] = target: Large T antigen (Simian virus 40, UniProt P03070); format: functional, Betapolyomavirus macacae;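 also: Confirmatory-stage PubChem screen for compounds that inhibit SV40 T antigen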
[22] = C. albicans growth with fluconazole, confirmation, fluorescence, retest (AID 2467); format: functional, cell-based
[23] = target: DNA dC->dU-editing enzyme APOBEC-3A (Homo sapiens, UniProt P31941); assay: APOBEC3A DNA deaminase inhibitors, dose response, biochemical (AID 504722); format: functional
[24] = target: T7, Alkaline phosphatase, tissue-nonspecific isozyme (Homo sapiens, UniProt P05186); assay: TNAP enzyme inhibition by screening hits, dose response, selectivity assay for mouse IAP inhibitor project, biochemical, human TNAP, uHTS hits (AID 488906); format: functional
T7 sequence (P05186 whole entry): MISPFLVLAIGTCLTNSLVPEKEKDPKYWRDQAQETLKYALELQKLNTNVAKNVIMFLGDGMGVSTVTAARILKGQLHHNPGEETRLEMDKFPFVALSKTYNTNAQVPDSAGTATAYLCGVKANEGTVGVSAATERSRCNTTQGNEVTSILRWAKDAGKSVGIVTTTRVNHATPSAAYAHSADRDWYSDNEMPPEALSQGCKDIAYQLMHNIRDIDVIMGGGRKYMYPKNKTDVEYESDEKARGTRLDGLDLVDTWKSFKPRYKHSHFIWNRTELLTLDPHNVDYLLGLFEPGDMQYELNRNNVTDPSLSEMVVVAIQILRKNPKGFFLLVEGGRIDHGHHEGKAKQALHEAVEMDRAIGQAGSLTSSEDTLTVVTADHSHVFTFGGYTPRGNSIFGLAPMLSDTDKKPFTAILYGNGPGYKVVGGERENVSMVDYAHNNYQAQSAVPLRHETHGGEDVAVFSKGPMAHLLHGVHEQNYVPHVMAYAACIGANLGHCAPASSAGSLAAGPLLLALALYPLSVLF

[25] = target: Intestinal-type alkaline phosphatase (Homo sapiens, UniProt P09923); assay: inhibition of human intestinal alkaline phosphatase – biochemical, dose response (AID 488876); format: functional
Intestinal-type alkaline phosphatase (Homo sapiens, UniProt P09923), sequence (P09923 whole entry): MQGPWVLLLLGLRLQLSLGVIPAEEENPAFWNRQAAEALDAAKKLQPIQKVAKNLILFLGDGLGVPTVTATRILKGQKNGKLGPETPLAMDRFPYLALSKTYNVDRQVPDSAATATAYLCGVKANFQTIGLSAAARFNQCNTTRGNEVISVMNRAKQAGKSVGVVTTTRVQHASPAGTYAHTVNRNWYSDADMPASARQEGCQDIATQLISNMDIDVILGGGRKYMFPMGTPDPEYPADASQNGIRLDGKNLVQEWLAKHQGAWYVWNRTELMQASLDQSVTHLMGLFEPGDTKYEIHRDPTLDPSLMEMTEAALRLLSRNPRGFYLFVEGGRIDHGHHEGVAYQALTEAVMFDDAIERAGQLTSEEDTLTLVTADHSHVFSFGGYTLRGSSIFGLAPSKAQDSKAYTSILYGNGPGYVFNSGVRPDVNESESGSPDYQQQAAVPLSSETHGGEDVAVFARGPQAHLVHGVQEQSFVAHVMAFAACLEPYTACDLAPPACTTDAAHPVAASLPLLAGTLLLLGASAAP

T1 sequence (Q9HC97 whole entry): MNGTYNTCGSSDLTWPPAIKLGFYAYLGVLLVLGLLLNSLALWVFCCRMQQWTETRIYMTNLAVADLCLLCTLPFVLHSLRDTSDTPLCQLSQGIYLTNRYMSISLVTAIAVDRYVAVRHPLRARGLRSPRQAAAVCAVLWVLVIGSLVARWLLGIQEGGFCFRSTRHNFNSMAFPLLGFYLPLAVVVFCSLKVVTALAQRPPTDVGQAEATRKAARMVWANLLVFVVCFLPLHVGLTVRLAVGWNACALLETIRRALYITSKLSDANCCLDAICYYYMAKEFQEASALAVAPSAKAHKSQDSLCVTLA
T4 sequence (P34972 whole entry): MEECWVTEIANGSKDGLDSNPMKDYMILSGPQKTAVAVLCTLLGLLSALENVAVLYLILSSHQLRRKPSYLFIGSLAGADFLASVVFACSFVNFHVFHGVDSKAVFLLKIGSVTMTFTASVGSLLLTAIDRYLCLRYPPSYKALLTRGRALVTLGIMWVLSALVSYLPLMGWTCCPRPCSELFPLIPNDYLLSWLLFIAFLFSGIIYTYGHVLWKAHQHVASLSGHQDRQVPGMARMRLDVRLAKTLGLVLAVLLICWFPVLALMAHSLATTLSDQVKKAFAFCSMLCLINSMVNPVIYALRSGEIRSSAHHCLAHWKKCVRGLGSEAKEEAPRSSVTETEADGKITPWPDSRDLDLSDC
T5 sequence (Q9UBE0 whole entry): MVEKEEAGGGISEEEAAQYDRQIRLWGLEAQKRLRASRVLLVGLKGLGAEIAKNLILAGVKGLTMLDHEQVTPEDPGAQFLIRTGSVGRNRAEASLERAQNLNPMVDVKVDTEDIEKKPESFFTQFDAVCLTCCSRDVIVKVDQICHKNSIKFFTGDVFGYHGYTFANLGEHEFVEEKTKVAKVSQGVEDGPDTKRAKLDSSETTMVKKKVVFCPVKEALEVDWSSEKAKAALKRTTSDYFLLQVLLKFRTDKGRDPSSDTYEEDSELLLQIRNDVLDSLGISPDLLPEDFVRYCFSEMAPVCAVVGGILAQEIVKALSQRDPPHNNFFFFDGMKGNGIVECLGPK
T5 sequence (Q9UBT2 whole entry): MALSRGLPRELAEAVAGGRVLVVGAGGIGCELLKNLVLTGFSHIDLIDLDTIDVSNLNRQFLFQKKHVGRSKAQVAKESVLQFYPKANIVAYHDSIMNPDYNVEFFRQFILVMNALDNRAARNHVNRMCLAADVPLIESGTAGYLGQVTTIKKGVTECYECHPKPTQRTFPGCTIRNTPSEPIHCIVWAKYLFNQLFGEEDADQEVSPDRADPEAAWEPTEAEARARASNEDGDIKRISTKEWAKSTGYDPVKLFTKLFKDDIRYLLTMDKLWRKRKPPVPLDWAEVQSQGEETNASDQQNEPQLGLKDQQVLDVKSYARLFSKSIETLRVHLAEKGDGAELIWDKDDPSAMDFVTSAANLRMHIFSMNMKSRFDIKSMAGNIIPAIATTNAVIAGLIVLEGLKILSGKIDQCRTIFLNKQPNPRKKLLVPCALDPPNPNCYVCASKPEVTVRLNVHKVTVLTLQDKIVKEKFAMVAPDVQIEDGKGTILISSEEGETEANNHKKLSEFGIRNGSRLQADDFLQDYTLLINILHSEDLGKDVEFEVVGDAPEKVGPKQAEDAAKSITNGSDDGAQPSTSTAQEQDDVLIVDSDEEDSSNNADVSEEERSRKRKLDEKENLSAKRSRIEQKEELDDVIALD
T3 sequence (P21554 whole entry): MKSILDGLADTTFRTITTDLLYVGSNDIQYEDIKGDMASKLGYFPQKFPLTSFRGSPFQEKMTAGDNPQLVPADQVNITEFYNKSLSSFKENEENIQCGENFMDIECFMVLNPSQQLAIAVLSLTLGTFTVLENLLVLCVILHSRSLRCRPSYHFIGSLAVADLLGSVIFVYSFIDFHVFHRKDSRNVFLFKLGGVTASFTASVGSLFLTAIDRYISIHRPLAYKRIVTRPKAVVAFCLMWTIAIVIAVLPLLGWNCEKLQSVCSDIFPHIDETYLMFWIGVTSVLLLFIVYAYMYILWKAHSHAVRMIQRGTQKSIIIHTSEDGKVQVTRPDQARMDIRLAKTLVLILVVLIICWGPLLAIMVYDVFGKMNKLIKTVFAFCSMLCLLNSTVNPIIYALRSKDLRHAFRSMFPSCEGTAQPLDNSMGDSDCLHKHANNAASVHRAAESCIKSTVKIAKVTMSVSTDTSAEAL
T2 sequence (Q9Y2T6 whole entry): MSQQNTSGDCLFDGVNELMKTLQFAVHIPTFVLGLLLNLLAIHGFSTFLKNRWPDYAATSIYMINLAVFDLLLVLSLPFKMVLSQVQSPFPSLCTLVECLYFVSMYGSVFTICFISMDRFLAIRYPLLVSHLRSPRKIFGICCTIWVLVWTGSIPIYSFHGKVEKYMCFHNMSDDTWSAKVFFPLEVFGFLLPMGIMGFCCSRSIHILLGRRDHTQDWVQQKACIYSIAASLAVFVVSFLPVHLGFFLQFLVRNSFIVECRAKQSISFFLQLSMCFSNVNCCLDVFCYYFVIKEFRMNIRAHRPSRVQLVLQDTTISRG
DNA dC->dU-editing enzyme APOBEC-3G, sequence (Q9HC16 whole entry): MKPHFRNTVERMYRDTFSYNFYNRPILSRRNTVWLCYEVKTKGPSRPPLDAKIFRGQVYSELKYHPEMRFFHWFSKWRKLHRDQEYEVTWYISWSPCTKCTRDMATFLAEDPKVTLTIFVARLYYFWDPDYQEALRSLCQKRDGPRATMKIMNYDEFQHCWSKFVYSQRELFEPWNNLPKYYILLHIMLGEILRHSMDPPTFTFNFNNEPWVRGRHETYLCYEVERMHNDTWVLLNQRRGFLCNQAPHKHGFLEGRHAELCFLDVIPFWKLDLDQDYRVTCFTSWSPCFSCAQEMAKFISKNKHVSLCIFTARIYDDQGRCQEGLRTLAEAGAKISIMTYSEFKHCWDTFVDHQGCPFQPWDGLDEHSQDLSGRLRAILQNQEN
DNA dC->dU-editing enzyme APOBEC-3A, sequence (P31941 whole entry): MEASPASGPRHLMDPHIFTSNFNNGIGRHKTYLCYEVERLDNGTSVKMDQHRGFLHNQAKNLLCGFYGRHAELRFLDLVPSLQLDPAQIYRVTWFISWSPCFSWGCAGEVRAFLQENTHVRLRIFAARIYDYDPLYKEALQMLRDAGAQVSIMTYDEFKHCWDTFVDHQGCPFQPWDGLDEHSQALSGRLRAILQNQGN
Metabotropic glutamate receptor 8, sequence (P70579 whole entry): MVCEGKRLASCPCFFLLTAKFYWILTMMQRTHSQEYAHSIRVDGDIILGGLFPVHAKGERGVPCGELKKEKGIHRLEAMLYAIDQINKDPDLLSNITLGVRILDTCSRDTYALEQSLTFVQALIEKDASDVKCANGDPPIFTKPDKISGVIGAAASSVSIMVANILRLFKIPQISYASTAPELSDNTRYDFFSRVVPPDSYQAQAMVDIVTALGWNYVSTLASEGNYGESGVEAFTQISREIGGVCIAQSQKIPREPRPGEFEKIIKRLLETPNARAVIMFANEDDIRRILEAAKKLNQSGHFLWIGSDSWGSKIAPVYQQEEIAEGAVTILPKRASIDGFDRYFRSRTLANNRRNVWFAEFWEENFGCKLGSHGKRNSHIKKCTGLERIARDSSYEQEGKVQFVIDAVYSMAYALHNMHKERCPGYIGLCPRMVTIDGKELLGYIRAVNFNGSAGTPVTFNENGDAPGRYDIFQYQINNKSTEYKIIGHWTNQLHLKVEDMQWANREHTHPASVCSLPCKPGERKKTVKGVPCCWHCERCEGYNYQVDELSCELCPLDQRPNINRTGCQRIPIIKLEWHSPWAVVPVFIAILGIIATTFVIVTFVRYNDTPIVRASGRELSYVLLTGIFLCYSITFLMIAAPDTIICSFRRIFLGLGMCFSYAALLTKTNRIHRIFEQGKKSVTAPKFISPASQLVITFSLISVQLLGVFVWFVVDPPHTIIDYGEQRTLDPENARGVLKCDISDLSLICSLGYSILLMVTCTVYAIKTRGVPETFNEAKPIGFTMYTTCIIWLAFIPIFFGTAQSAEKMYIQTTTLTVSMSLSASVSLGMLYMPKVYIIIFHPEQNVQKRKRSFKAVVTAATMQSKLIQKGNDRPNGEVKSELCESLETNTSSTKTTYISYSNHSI

IC50 [1]: > 32 µM (inactive)
EC50 [2]: > 32 µM (inactive)
IC50 [3]: 1.14 µM (active)
EC50 [4]: > 32 µM (inactive)
IC50 [5]: 30.7 µM (inactive)
IC50 [6]: > 32 µM (inactive)
EC50 [7]: > 32 µM (inactive)
IC50 [8]: 1.26 µM (active)
Structure (SMILES): COC(=O)C1=C(N)c2c(F)cccc2C1(C#N)c1ccc(F)cc1 (stereo not given)

EC50 [9]: 2.51 µM (active)
EC50 [10]: 0.787 µM (inactive)
EC50 [11]: 0.514 µM (inactive)
EC50 [12]: 11 µM (inactive)
EC50 [13]: 1.4 µM (inactive)
Structure (SMILES): O=C(Nc1ccc(N2C(=O)[C@H]3[C@H](C2=O)[C@H]2C=C[C@@H]3C2)c(Cl)c1)c1ccccn1

Structure (SMILES): N#C/C(=C\c1ccc(O)c(O)c1)C(=O)Nc1cccc2ncccc12
IC50 [14]: 21.4 µM (active)
IC50 [15]: > 94 µM (inactive)
EC50 [16]: > 150 µM (inactive)
AC50 [17]: 3.18 µM (active)
IC50 [18]: 14.3 µM (active)
IC50 [19]: 3.81 µM (active)
IC50 [20]: 1.27 µM (active)
IC50 [21]: 27.8 µM (active)
EC50 [22]: > 38 µM (not active)
IC50 [23]: > 100 µM (inactive)
IC50 [24]: 34.6 µM (active)
IC50 [25]: 12.5 µM (active)

— ChEMBL document CHEMBL1201862, “PubChem BioAssay data set” (2004)
